# Values joined by “and” are separate entries in the source; they are usually repeats but may differ in a detail not shown here. Equal values may be shown once.
# Target: HIV-1 wild-type protease (Human immunodeficiency virus type 1 group M subtype B, UniProt P04585)
# Assay: Fluorometric HIV-1 protease assay (SensoLyte 520 HIV Protease Assay Kit)
# Type: biochemical
# Conditions: for enzyme inhibition (relative activity): at 1 μM, 100 nM and 10 nM
# Procedure: The inhibitory effects of the described compounds against HIV-1 wild-type protease were assessed utilizing the fluorometric HIV-1 protease assay kit (SensoLyte 520 HIV Protease Assay Kit AS-71147, AnaSpec Inc., USA), following the manufacturer’s recommended protocol. […] Additionally, 0.01% (v/v) DMSO was employed as the negative control. […] The tested compounds 9a–g were dissolved in 100% DMSO and further diluted with the assay buffer provided in the kit to varying concentrations. The fluorescence was measured in kinetic mode at 490 nm (excitation) and 520 nm (emission) for 90 min at 37 °C using the Varioskan LUX multimode microplate reader (Thermo Fisher Scientific Inc. USA). The raw data obtained were subsequently normalized relative to the controls, with 0.01% DMSO set as 0% inhibitory activity. The IC50 values were calculated by fitting the data to a four-parameter log(inhibitor) vs response equation using GraphPad Prism version 9.5.0 (GraphPad Software, San Diego, California, USA).
SMILES,enzyme inhibition (relative activity) (result in words),"IC50 (IC50, wild-type HIV-1 protease, four-parameter log(inhibitor) vs response fit)","inhibitory effect (at 1 μM and 100 nM, result in words)"
"NC(=O)CNC(=O)C(Cc1ccccc1)CP(=O)(O)CC(Cc1ccccc1)C(=O)NCC(N)=O (stereo not shown) [Compound 9a, Bis(3-((2-amino-2-oxoethyl)amino)-2-benzyl-3-oxopropyl)phosphinic Acid]",did not exhibit any significant inhibitory effect,,
"C[C@H](NC(=O)C(Cc1ccccc1)CP(=O)(O)CC(Cc1ccccc1)C(=O)N[C@@H](C)C(N)=O)C(N)=O (stereo partly drawn) [Compound 9b, Bis(3-(((S)-1-amino-1-oxopropan-2-yl)amino)-2-benzyl-3-oxopropyl)phosphinic Acid]",only weak inhibition,,
"CC(C)[C@H](NC(=O)C(Cc1ccccc1)CP(=O)(O)CC(Cc1ccccc1)C(=O)N[C@H](C(N)=O)C(C)C)C(N)=O (stereo partly drawn) [Compound 9c, Bis(3-(((S)-1-amino-3-methyl-1-oxobutan-2-yl)amino)-2-benzyl-3-oxopropyl)phosphinic Acid]",,33 nM and 33.1 nM,pronounced inhibitory effect comparable to that of Darunavir
"CC(C)C[C@H](NC(=O)C(Cc1ccccc1)CP(=O)(O)CC(Cc1ccccc1)C(=O)N[C@@H](CC(C)C)C(N)=O)C(N)=O (stereo partly drawn) [Compound 9d, Bis(3-(((S)-1-amino-4-methyl-1-oxopentan-2-yl)amino)-2-benzyl-3-oxopropyl)phosphinic Acid]",moderate level of enzyme inhibition,,
"NC(=O)[C@H](Cc1ccccc1)NC(=O)C(Cc1ccccc1)CP(=O)(O)CC(Cc1ccccc1)C(=O)N[C@@H](Cc1ccccc1)C(N)=O (stereo partly drawn) [Compound 9e, Bis(3-(((S)-1-amino-1-oxo-3-phenylpropan-2-yl)amino)-2-benzyl-3-oxopropyl)phosphinic Acid]",only weak inhibition,,
"NC(=O)[C@@H]1CCCN1C(=O)C(Cc1ccccc1)CP(=O)(O)CC(Cc1ccccc1)C(=O)N1CCC[C@H]1C(N)=O (stereo partly drawn) [Compound 9f, Bis(2-benzyl-3-((S)-2-carbamoylpyrrolidin-1-yl)-3-oxopropyl)phosphinic Acid]",did not exhibit any significant inhibitory effect,,
